According to patent publication US9006487B2, “Amine-containing lipids and uses thereof” (Massachusetts Institute of Technology, priority 2005, dated 2015):

system: cos-7 cells; experiment: DNA transfection: luciferase expression relative to Lipofectamine 2000; type: cell-based; conditions: lipid/DNA 2.5 w/w; 300 ng Luciferase DNA per well; luciferase assay after 48 hours
Summary of the method: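 cos-7 cells were transfected with 300 ng/well luciferase DNA complexed with lipid at ratios from 2.5 to 25 w/w. Bright-Glo luminescence was read after 48 hours and converted to ng luciferase by standard curve. Data are percent of the Lipofectamine 2000 control (2.5 w/w).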

With `CCCCCCCCCCCCCCOC(=O)CC[N+](C)(CCC(=O)OCCCCCCCCCCCCCC)CCC1CCC[N+]1(C)C.[I-].[I-]` (stereo not drawn) [QF77] as the molecule, how does the “Luciferase expression as a percentage of that achieved using Lipofectamine 2000” value (“Luciferase expression as a percentage” below) read?
The value was 0.4%.

With `CCCCCCCCCCCCCCCOC(=O)CC[N+](C)(CCCOC)CCC(=O)OCCCCCCCCCCCCCCC.[I-]` [QG1] as the molecule, how does the “Luciferase expression as a percentage” value read?
Its value is 0.4%.

For `CCCCCCCCCCCCCCCOC(=O)CC[N+](C)(CCC(=O)OCCCCCCCCCCCCCCC)CCC1OCCO1.[I-]` [QG6], which “Luciferase expression as a percentage” value is on record?
The value was 0.0%.

same assay, conditions: lipid/DNA 5 w/w; 300 ng Luciferase DNA per well; luciferase assay after 48 hours

How did the “Luciferase expression as a percentage” value turn out when `CCCCCCCCCCCCCCOC(=O)CC[N+](C)(CCC(=O)OCCCCCCCCCCCCCC)CCC1CCC[N+]1(C)C.[I-].[I-]` (stereo not drawn) [QF77] was run?
The value was 0.4%.

With `CCCCCCCCCCCCCCCOC(=O)CC[N+](C)(CCCOC)CCC(=O)OCCCCCCCCCCCCCCC.[I-]` [QG1] as the molecule, how does the “Luciferase expression as a percentage” value read?
The value was 0.5%.

For `CCCCCCCCCCCCCCCOC(=O)CC[N+](C)(CCC(=O)OCCCCCCCCCCCCCCC)CCC1OCCO1.[I-]` [QG6], which “Luciferase expression as a percentage” value is on record?
Its value is 0.0%.

same assay, conditions: lipid/DNA 10 w/w; 300 ng Luciferase DNA per well; luciferase assay after 48 hours

`CCCCCCCCCCCCCCOC(=O)CC[N+](C)(CCC(=O)OCCCCCCCCCCCCCC)CCC1CCC[N+]1(C)C.[I-].[I-]` (stereo not drawn) [QF77] was tested. Which “Luciferase expression as a percentage” value did it give?
Its value is 0.7%.

For `CCCCCCCCCCCCCCCOC(=O)CC[N+](C)(CCCOC)CCC(=O)OCCCCCCCCCCCCCCC.[I-]` [QG1], which “Luciferase expression as a percentage” value is on record?
The value was 0.4%.

`CCCCCCCCCCCCCCCOC(=O)CC[N+](C)(CCC(=O)OCCCCCCCCCCCCCCC)CCC1OCCO1.[I-]` [QG6] was tested. Which “Luciferase expression as a percentage” value did it give?
The value was 0.0%.

same assay, conditions: lipid/DNA 15 w/w; 300 ng Luciferase DNA per well; luciferase assay after 48 hours

`CCCCCCCCCCCCCCOC(=O)CC[N+](C)(CCC(=O)OCCCCCCCCCCCCCC)CCC1CCC[N+]1(C)C.[I-].[I-]` (stereo not drawn) [QF77] was tested. Which “Luciferase expression as a percentage” value did it give?
The value was 1.3%.

For `CCCCCCCCCCCCCCCOC(=O)CC[N+](C)(CCCOC)CCC(=O)OCCCCCCCCCCCCCCC.[I-]` [QG1], which “Luciferase expression as a percentage” value is on record?
Its value is 0.4%.

Which “Luciferase expression as a percentage” value does the source give for `CCCCCCCCCCCCCCCOC(=O)CC[N+](C)(CCC(=O)OCCCCCCCCCCCCCCC)CCC1OCCO1.[I-]` [QG6] here?
The value was 0.0%.

same assay, conditions: lipid/DNA 20 w/w; 300 ng Luciferase DNA per well; luciferase assay after 48 hours

With `CCCCCCCCCCCCCCOC(=O)CC[N+](C)(CCC(=O)OCCCCCCCCCCCCCC)CCC1CCC[N+]1(C)C.[I-].[I-]` (stereo not drawn) [QF77] as the molecule, how does the “Luciferase expression as a percentage” value read?
Its value is 2.7%.

For `CCCCCCCCCCCCCCCOC(=O)CC[N+](C)(CCCOC)CCC(=O)OCCCCCCCCCCCCCCC.[I-]` [QG1], which “Luciferase expression as a percentage” value is on record?
The value was 0.3%.

For `CCCCCCCCCCCCCCCOC(=O)CC[N+](C)(CCC(=O)OCCCCCCCCCCCCCCC)CCC1OCCO1.[I-]` [QG6], which “Luciferase expression as a percentage” value is on record?
Its value is 0.0%.

same assay, conditions: lipid/DNA 25 w/w; 300 ng Luciferase DNA per well; luciferase assay after 48 hours

For `CCCCCCCCCCCCCCOC(=O)CC[N+](C)(CCC(=O)OCCCCCCCCCCCCCC)CCC1CCC[N+]1(C)C.[I-].[I-]` (stereo not drawn) [QF77], which “Luciferase expression as a percentage” value is on record?
The value was 9.9%.

Which “Luciferase expression as a percentage” value does the source give for `CCCCCCCCCCCCCCCOC(=O)CC[N+](C)(CCCOC)CCC(=O)OCCCCCCCCCCCCCCC.[I-]` [QG1] here?
The value was 0.3%.

How did the “Luciferase expression as a percentage” value turn out when `CCCCCCCCCCCCCCCOC(=O)CC[N+](C)(CCC(=O)OCCCCCCCCCCCCCCC)CCC1OCCO1.[I-]` [QG6] was run?
Its value is 0.0%.
